Assay results: BindingDB's records for PubMed 34355178 (n/a, 2021)

Target: T1, Toll-like receptor 7 (Homo sapiens, UniProt Q9NYK1)
T1 sequence (Q9NYK1 whole entry): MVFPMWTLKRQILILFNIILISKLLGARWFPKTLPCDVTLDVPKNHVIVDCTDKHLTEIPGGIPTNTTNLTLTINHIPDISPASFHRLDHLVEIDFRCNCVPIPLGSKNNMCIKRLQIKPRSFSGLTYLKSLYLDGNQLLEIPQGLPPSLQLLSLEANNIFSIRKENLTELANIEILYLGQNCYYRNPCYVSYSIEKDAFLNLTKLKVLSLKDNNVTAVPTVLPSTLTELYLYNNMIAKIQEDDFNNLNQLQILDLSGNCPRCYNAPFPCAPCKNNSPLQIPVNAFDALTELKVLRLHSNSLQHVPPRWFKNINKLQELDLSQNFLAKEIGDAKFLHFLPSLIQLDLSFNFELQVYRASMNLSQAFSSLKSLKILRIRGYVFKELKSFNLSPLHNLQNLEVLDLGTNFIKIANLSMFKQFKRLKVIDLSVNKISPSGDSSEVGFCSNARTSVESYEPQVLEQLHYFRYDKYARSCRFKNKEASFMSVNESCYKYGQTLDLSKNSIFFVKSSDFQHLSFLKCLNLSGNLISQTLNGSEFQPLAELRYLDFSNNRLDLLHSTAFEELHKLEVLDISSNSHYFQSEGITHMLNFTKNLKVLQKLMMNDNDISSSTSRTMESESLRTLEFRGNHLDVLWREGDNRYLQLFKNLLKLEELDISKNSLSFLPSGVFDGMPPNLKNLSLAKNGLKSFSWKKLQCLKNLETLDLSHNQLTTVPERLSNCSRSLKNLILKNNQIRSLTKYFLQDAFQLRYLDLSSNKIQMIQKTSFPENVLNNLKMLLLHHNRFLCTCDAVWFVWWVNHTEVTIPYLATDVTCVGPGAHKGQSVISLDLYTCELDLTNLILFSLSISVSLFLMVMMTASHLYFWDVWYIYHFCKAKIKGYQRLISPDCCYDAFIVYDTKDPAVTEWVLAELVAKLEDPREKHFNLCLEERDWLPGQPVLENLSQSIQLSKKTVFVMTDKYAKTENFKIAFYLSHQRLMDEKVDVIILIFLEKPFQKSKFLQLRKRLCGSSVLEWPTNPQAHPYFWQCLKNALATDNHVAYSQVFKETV
Assay: Agonist activity at human TLR7 in HEK-Blue hTLR7 cells assessed as activation of NFkappaB by SEAP reporter gene based spectrophotometry assay

CC[C@H](C)c1nc2c(N)nc3ccccc3c2s1
EC50: 8.11 µM

CCCc1nc2c(N)nc3ccc(N)cc3c2s1
EC50: 8.19 µM
